Assay results: ChEMBL document CHEMBL1770082, “Probing the isoprenylcysteine carboxyl methyltransferase (Icmt) binding pocket: sulfonamide modified farnesyl cysteine (SMFC) analogs as Icmt inhibitors” (Bioorg Med Chem Lett, 2011)

Each compound was assayed against T1, Protein-S-isoprenylcysteine O-methyltransferase (Homo sapiens, UniProt O60725) (assay: Inhibition of human ICMT incubated with N-Acetyl-S-farnesyl-L-cysteine substrate for 5 mins followed by addition of [14C]-SAM measured after 30 mins by liquid scintillation counting). Details: not given.
T1 sequence (O60725 whole entry): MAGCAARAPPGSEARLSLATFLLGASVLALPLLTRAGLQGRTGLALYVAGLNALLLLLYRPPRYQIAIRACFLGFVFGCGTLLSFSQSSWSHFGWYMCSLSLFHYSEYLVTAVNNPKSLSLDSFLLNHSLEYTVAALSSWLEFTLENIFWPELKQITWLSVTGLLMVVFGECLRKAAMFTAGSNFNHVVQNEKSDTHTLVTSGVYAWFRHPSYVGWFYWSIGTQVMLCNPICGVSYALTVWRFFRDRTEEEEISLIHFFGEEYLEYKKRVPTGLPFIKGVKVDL

| Compound | IC50 [µM] |
| --- | --- |
| CC(C)=CCC/C(C)=C/CC/C(C)=C/CSC[C@H](NS(=O)(=O)c1ccccc1Oc1ccccc1)C(=O)O | 18.4 |
| CC(C)=CCC/C(C)=C/CC/C(C)=C/CSC[C@H](NS(=O)(=O)c1cccc2c(N(C)C)cccc12)C(=O)O | 11.6 |
| CC(C)=CCC/C(C)=C/CC/C(C)=C/CSC[C@H](NS(=O)(=O)c1cccs1)C(=O)O | 8.8 |

Now from value to compound:

| IC50 [µM] | Compound |
| --- | --- |
| 15.5 | CC(C)=CCC/C(C)=C/CC/C(C)=C/CSC[C@H](NS(=O)(=O)c1ccc(F)cc1)C(=O)O |
| 17 | CC(C)=CCC/C(C)=C/CC/C(C)=C/CSC[C@H](NS(=O)(=O)c1ccccc1)C(=O)O |
| 13.4 | CC(C)=CCC/C(C)=C/CC/C(C)=C/CSC[C@H](NS(=O)(=O)c1cccc([N+](=O)[O-])c1)C(=O)O |

What follows are compounds tested against T1, Protein-S-isoprenylcysteine O-methyltransferase (assay: Inhibition of human ICMT at 10uM incubated with N-Acetyl-S-farnesyl-L-cysteine substrate for 5 mins followed by addition of [14C]-SAM measured after 30 mins by liquid scintillation counting). Details: not given.

| inhibition [%] | Compound |
| --- | --- |
| 10 | COC(=O)[C@H](CSC/C=C(\C)CC/C=C(\C)CCC=C(C)C)NS(=O)(=O)c1cccs1 |

Each compound was assayed against T1, Protein-S-isoprenylcysteine O-methyltransferase. Details: at 10 µM.
Description: Inhibition of human ICMT at 10 uM incubated with N-Acetyl-S-farnesyl-L-cysteine substrate for 5 mins followed by addition of [14C]-SAM measured after 30 mins by liquid scintillation counting

| Compound | inhibition [%] |
| --- | --- |
| CC(C)=CCC/C(C)=C/CC/C(C)=C/CSC[C@H](NS(=O)(=O)c1ccc(Br)s1)C(=O)O | < 45 |
| CCCCCCCCS(=O)(=O)N[C@@H](CSC/C=C(\C)CC/C=C(\C)CCC=C(C)C)C(=O)O | < 45 |
| CC(C)=CCC/C(C)=C/CC/C(C)=C/CSC[C@H](NS(=O)(=O)c1ccccc1Oc1ccccc1)C(=O)O | 55 |
| CC(C)=CCC/C(C)=C/CC/C(C)=C/CSC[C@H](NS(=O)(=O)c1cccc2c(N(C)C)cccc12)C(=O)O | 45 |
| CC(C)=CCC/C(C)=C/CC/C(C)=C/CSC[C@H](NS(=O)(=O)c1cccs1)C(=O)O | > 55 |
| CC(C)=CCC/C(C)=C/CC/C(C)=C/CSC[C@H](NS(=O)(=O)c1ccccc1Br)C(=O)O | < 45 |
| CC(C)=CCC/C(C)=C/CC/C(C)=C/CSC[C@H](NS(=O)(=O)c1cccc2cccnc12)C(=O)O | 45 |
| CC(C)=CCC/C(C)=C/CC/C(C)=C/CSC[C@H](NS(=O)(=O)c1c(C(C)C)cc(C(C)C)cc1C(C)C)C(=O)O | < 45 |
| CC(C)=CCC/C(C)=C/CC/C(C)=C/CSC[C@H](NS(=O)(=O)Cc1ccccc1)C(=O)O | < 45 |
| CC(C)=CCC/C(C)=C/CC/C(C)=C/CSC[C@H](NS(=O)(=O)C[C@@]12CC[C@H](CC1=O)C2(C)C)C(=O)O | 45 |
| CC(C)=CCC/C(C)=C/CSC[C@H](NS(=O)(=O)c1ccccc1)C(=O)O | 22 |
| CCCCCCCCCCCSC[C@H](NS(=O)(=O)c1cccc([N+](=O)[O-])c1)C(=O)O | 32 |
| CC(C)=CCC/C(C)=C/CSC[C@H](NS(=O)(=O)c1ccc(F)cc1)C(=O)O | 23 |
| CC(C)=CCC/C(C)=C/CSC[C@H](NS(=O)(=O)c1cccc([N+](=O)[O-])c1)C(=O)O | 18 |
| CC(C)=CCC/C(C)=C/CC/C(C)=C/CSC[C@H](NS(=O)(=O)c1ccc([N+](=O)[O-])cc1)C(=O)O | > 55 |
| CCCc1ccc(S(=O)(=O)N[C@@H](CSC/C=C(\C)CC/C=C(\C)CCC=C(C)C)C(=O)O)cc1 | < 45 |
| CC(C)=CCC/C(C)=C/CC/C(C)=C/CSC[C@H](NS(=O)(=O)c1c(F)c(F)c(F)c(F)c1F)C(=O)O | < 45 |
| CC(C)=CCC/C(C)=C/CC/C(C)=C/CSC[C@H](NS(=O)(=O)c1ccc(-c2ccccc2)cc1)C(=O)O | < 45 |
| CC(C)=CCC/C(C)=C/CC/C(C)=C/CSC[C@H](NS(=O)(=O)c1c(C)c(C)c(C)c(C)c1C)C(=O)O | < 45 |
| CC(=O)Nc1ccc(S(=O)(=O)N[C@@H](CSC/C=C(\C)CC/C=C(\C)CCC=C(C)C)C(=O)O)cc1 | < 45 |
| CC(C)=CCC/C(C)=C/CC/C(C)=C/CSC[C@H](NS(=O)(=O)c1ccccc1[N+](=O)[O-])C(=O)O | 45 |
| CC(C)=CCC/C(C)=C/CC/C(C)=C/CSC[C@H](NS(=O)(=O)c1ccccc1C(F)(F)F)C(=O)O | < 45 |
| CCCCCCSC[C@H](NS(=O)(=O)c1cccc([N+](=O)[O-])c1)C(=O)O | 17 |

Continued, values first:

| inhibition [%] | Compound |
| --- | --- |
| < 45 | COc1ccc(S(=O)(=O)N[C@@H](CSC/C=C(\C)CC/C=C(\C)CCC=C(C)C)C(=O)O)c([N+](=O)[O-])c1 |
| < 45 | CC(C)=CCC/C(C)=C/CC/C(C)=C/CSC[C@H](NS(=O)(=O)c1ccc(Cl)cc1F)C(=O)O |
| > 55 | COc1ccc(S(=O)(=O)N[C@@H](CSC/C=C(\C)CC/C=C(\C)CCC=C(C)C)C(=O)O)cc1OC |
| < 45 | C=Cc1ccc(S(=O)(=O)N[C@@H](CSC/C=C(\C)CC/C=C(\C)CCC=C(C)C)C(=O)O)cc1 |
| 45 | CC(C)=CCC/C(C)=C/CC/C(C)=C/CSC[C@H](NS(=O)(=O)c1ccc2ccccc2c1)C(=O)O |
| 45 | CC(C)=CCC/C(C)=C/CC/C(C)=C/CSC[C@H](NS(=O)(=O)c1ccc(F)cc1F)C(=O)O |
| < 45 | CC(C)=CCC/C(C)=C/CC/C(C)=C/CSC[C@H](NS(=O)(=O)c1ccc(C(C)C)cc1)C(=O)O |
| 45 | COc1ccc(S(=O)(=O)N[C@@H](CSC/C=C(\C)CC/C=C(\C)CCC=C(C)C)C(=O)O)c(OC)c1 |
| < 45 | COc1ccc(S(=O)(=O)N[C@@H](CSC/C=C(\C)CC/C=C(\C)CCC=C(C)C)C(=O)O)cc1 |
| > 55 | CC(C)=CCC/C(C)=C/CC/C(C)=C/CSC[C@H](NS(=O)(=O)c1ccc(F)cc1)C(=O)O |
| 45 | CC(C)=CCC/C(C)=C/CC/C(C)=C/CSC[C@H](NS(=O)(=O)c1ccc(Cl)cc1)C(=O)O |
| 45 | CC(=O)c1ccc(S(=O)(=O)N[C@@H](CSC/C=C(\C)CC/C=C(\C)CCC=C(C)C)C(=O)O)cc1 |
| 45 | CC(C)=CCC/C(C)=C/CC/C(C)=C/CSC[C@H](NS(=O)(=O)c1ccccc1)C(=O)O |
| > 55 | CC(C)=CCC/C(C)=C/CC/C(C)=C/CSC[C@H](NS(=O)(=O)c1cccc([N+](=O)[O-])c1)C(=O)O |
| 45 | CC(C)=CCC/C(C)=C/CC/C(C)=C/CSC[C@H](NS(=O)(=O)c1ccc(C(C)(C)C)cc1)C(=O)O |
| < 45 | CC(C)=CCC/C(C)=C/CC/C(C)=C/CSC[C@H](NS(=O)(=O)c1ccc(C)cc1)C(=O)O |
